Measurements taken from US20260042764A1, “COMPOSITIONS AND METHODS FOR INHIBITION OF KRAS” (TheRas, Inc., priority 2022, published 2026).

target: T1, Avi-KRAS G12D (1-169) GppNHp/RAF1 RBD-3xFLAG (52-151) (Homo sapiens, UniProt P01116, G12D); experiment: Raf1-KRAS G12D-GppNHP disruption HTRF assay (Biological Example 1); assay type: binding; settings: KRAS G12D, GppNHp-loaded; Table 11
T1 construct: Avi-KRAS G12D (1-169)
Method in brief: (§1)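 Percent activity versus DMSO (100%) was derived from HTRF signal after KRAS–RAF1 RBD protein mix was incubated 1 h at room temperature with shaking and detection reagents were added for a further 1 h.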

T1 sequence (P01116 1-169 isoform P01116-2 G12D): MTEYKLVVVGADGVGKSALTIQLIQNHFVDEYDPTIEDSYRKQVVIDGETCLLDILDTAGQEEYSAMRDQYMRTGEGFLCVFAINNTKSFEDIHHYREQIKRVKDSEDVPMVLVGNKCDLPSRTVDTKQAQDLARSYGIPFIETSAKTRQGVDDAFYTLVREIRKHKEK

Row | Compound | IC50 [µM]
1 | CC1(O)COCCN(c2nc(OC[C@@]34CCCN3C[C@H](F)C4)nc3c(F)c(-c4ccc(F)c5sc(N)c(C#N)c45)c(C(F)(F)F)cc23)C1 (stereo partly drawn) [Compound 244] | 0.1 to 1
2 | C[C@H]1C[C@H](O)CCN1c1nc(OC[C@@]23CCCN2C[C@H](F)C3)nc2c(F)c(-c3ccc(F)c4sc(N)c(C#N)c34)c(C(F)(F)F)cc12 [Compound 246] | 0.1 to 1
3 | CC(=O)N1C[C@@H](N(C)c2nc(OC[C@@]34CCCN3C[C@H](F)C4)nc3c(F)c(-c4ccc(F)c5sc(N)c(C#N)c45)c(C(F)(F)F)cc23)C[C@H]1CO [Compound 247] | 0.1 to 1
4 | N#Cc1c(N)sc2c(F)ccc(-c3c(C(F)(F)F)cc4c(N5CCCC6(C5)NC(=O)NC6=O)nc(OC[C@@]56CCCN5C[C@H](F)C6)nc4c3F)c12 (stereo partly drawn) [Compound 248] | 0.1 to 1
5 | N#Cc1c(N)sc2c(F)ccc(-c3c(C(F)(F)F)cc4c(N5CCNC(=O)CC5)nc(OC[C@@]56CCCN5C[C@H](F)C6)nc4c3F)c12 [Compound 251] | 0.1 to 1
6 | C[C@H]1[C@@H](N(C)c2nc(OC[C@@]34CCCN3C[C@H](F)C4)nc3c(F)c(-c4ccc(F)c5sc(N)c(C#N)c45)c(C(F)(F)F)cc23)CCN1C(=O)CC#N [Compound 252] | 1 to 10

test system: SW620 cells (KRAS G12V); experiment: Cell-based pERK HTRF assay in SW620 cell (Biological Example 4); settings: Homo sapiens, SW-620, SW620 (KRAS G12V) cells, pERK HTRF
Method in brief: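 In SW620 cells grown in RPMI with 10% FBS, a 4 h compound treatment (0.25% DMSO, 9-point curve from 1 μM) preceded lysis. Phospho-ERK levels were then read by time-resolved FRET at 615 nm emission.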

Row | Compound | IC50 [µM]
7 | CC1(O)COCCN(c2nc(OC[C@@]34CCCN3C[C@H](F)C4)nc3c(F)c(-c4ccc(F)c5sc(N)c(C#N)c45)c(C(F)(F)F)cc23)C1 (stereo partly drawn) [Compound 244] | < 0.1
8 | C[C@H]1C[C@H](O)CCN1c1nc(OC[C@@]23CCCN2C[C@H](F)C3)nc2c(F)c(-c3ccc(F)c4sc(N)c(C#N)c34)c(C(F)(F)F)cc12 [Compound 246] | < 0.1
9 | CC(=O)N1C[C@@H](N(C)c2nc(OC[C@@]34CCCN3C[C@H](F)C4)nc3c(F)c(-c4ccc(F)c5sc(N)c(C#N)c45)c(C(F)(F)F)cc23)C[C@H]1CO [Compound 247] | 0.1 to 1
10 | N#Cc1c(N)sc2c(F)ccc(-c3c(C(F)(F)F)cc4c(N5CCCC6(C5)NC(=O)NC6=O)nc(OC[C@@]56CCCN5C[C@H](F)C6)nc4c3F)c12 (stereo partly drawn) [Compound 248] | 0.1 to 1
11 | N#Cc1c(N)sc2c(F)ccc(-c3c(C(F)(F)F)cc4c(N5CCNC(=O)CC5)nc(OC[C@@]56CCCN5C[C@H](F)C6)nc4c3F)c12 [Compound 251] | 0.1 to 1
12 | C[C@H]1[C@@H](N(C)c2nc(OC[C@@]34CCCN3C[C@H](F)C4)nc3c(F)c(-c4ccc(F)c5sc(N)c(C#N)c45)c(C(F)(F)F)cc23)CCN1C(=O)CC#N [Compound 252] | 0.1 to 1

target: T2, Avi-KRAS WT (1-169) GppNHp/RAF1 RBD-3xFLAG (52-151) (Homo sapiens, UniProt P01116); experiment: Raf1-KRAS WT-GppNHP disruption HTRF assay (Biological Example 1); assay type: binding; settings: KRAS WT, GppNHp-loaded; Table 11
T2 construct: Avi-KRAS WT (1-169)
T2 sequence (P01116 1-169 isoform P01116-2): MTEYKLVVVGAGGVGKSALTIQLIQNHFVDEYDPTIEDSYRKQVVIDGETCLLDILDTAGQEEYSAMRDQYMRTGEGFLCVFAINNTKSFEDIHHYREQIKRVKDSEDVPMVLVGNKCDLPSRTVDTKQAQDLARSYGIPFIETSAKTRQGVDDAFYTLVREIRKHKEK
Method in brief: as §1

Row | Compound | IC50 [µM]
13 | CC1(O)COCCN(c2nc(OC[C@@]34CCCN3C[C@H](F)C4)nc3c(F)c(-c4ccc(F)c5sc(N)c(C#N)c45)c(C(F)(F)F)cc23)C1 (stereo partly drawn) [Compound 244] | 0.1 to 1
14 | C[C@H]1C[C@H](O)CCN1c1nc(OC[C@@]23CCCN2C[C@H](F)C3)nc2c(F)c(-c3ccc(F)c4sc(N)c(C#N)c34)c(C(F)(F)F)cc12 [Compound 246] | 0.1 to 1
15 | CC(=O)N1C[C@@H](N(C)c2nc(OC[C@@]34CCCN3C[C@H](F)C4)nc3c(F)c(-c4ccc(F)c5sc(N)c(C#N)c45)c(C(F)(F)F)cc23)C[C@H]1CO [Compound 247] | 0.1 to 1
16 | N#Cc1c(N)sc2c(F)ccc(-c3c(C(F)(F)F)cc4c(N5CCCC6(C5)NC(=O)NC6=O)nc(OC[C@@]56CCCN5C[C@H](F)C6)nc4c3F)c12 (stereo partly drawn) [Compound 248] | 0.1 to 1
17 | N#Cc1c(N)sc2c(F)ccc(-c3c(C(F)(F)F)cc4c(N5CCNC(=O)CC5)nc(OC[C@@]56CCCN5C[C@H](F)C6)nc4c3F)c12 [Compound 251] | 0.1 to 1
18 | C[C@H]1[C@@H](N(C)c2nc(OC[C@@]34CCCN3C[C@H](F)C4)nc3c(F)c(-c4ccc(F)c5sc(N)c(C#N)c45)c(C(F)(F)F)cc23)CCN1C(=O)CC#N [Compound 252] | 1 to 10

target: T3, Avi-KRAS G12V (1-169) GppNHp/RAF1 RBD-3xFLAG (52-151) (Homo sapiens, UniProt P01116, G12V); experiment: Raf1-KRAS G12V-GppNHP disruption HTRF assay (Biological Example 1); assay type: binding; settings: KRAS G12V, GppNHp-loaded; Table 11
T3 construct: Avi-KRAS G12V (1-169)
T3 sequence (P01116 1-169 isoform P01116-2 G12V): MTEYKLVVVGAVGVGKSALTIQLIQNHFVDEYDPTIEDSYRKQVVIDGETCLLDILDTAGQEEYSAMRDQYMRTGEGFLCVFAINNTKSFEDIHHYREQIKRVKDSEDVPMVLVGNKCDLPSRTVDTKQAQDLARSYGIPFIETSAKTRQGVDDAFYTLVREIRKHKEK
Method in brief: as §1

Row | Compound | IC50 [µM]
19 | CC1(O)COCCN(c2nc(OC[C@@]34CCCN3C[C@H](F)C4)nc3c(F)c(-c4ccc(F)c5sc(N)c(C#N)c45)c(C(F)(F)F)cc23)C1 (stereo partly drawn) [Compound 244] | 0.1 to 1
20 | C[C@H]1C[C@H](O)CCN1c1nc(OC[C@@]23CCCN2C[C@H](F)C3)nc2c(F)c(-c3ccc(F)c4sc(N)c(C#N)c34)c(C(F)(F)F)cc12 [Compound 246] | 0.1 to 1
21 | CC(=O)N1C[C@@H](N(C)c2nc(OC[C@@]34CCCN3C[C@H](F)C4)nc3c(F)c(-c4ccc(F)c5sc(N)c(C#N)c45)c(C(F)(F)F)cc23)C[C@H]1CO [Compound 247] | 0.1 to 1
22 | N#Cc1c(N)sc2c(F)ccc(-c3c(C(F)(F)F)cc4c(N5CCCC6(C5)NC(=O)NC6=O)nc(OC[C@@]56CCCN5C[C@H](F)C6)nc4c3F)c12 (stereo partly drawn) [Compound 248] | 0.1 to 1
23 | N#Cc1c(N)sc2c(F)ccc(-c3c(C(F)(F)F)cc4c(N5CCNC(=O)CC5)nc(OC[C@@]56CCCN5C[C@H](F)C6)nc4c3F)c12 [Compound 251] | 0.1 to 1
24 | C[C@H]1[C@@H](N(C)c2nc(OC[C@@]34CCCN3C[C@H](F)C4)nc3c(F)c(-c4ccc(F)c5sc(N)c(C#N)c45)c(C(F)(F)F)cc23)CCN1C(=O)CC#N [Compound 252] | 1 to 10

target: T4, Avi-KRAS G12R (1-169) GppNHp/RAF1 RBD-3xFLAG (52-151) (Homo sapiens, UniProt P01116, G12R); experiment: Raf1-KRAS G12R-GppNHP disruption HTRF assay (Biological Example 1); assay type: binding; settings: KRAS G12R, GppNHp-loaded; Table 11
T4 construct: Avi-KRAS G12R (1-169)
T4 sequence (P01116 1-169 isoform P01116-2 G12R): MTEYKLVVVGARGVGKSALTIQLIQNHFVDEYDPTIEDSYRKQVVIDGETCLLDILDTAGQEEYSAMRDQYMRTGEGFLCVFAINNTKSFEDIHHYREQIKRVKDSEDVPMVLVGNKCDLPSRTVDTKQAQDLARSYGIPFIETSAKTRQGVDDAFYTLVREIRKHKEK
Method in brief: as §1

Row | Compound | IC50 [µM]
25 | CC1(O)COCCN(c2nc(OC[C@@]34CCCN3C[C@H](F)C4)nc3c(F)c(-c4ccc(F)c5sc(N)c(C#N)c45)c(C(F)(F)F)cc23)C1 (stereo partly drawn) [Compound 244] | 0.1 to 1
26 | C[C@H]1C[C@H](O)CCN1c1nc(OC[C@@]23CCCN2C[C@H](F)C3)nc2c(F)c(-c3ccc(F)c4sc(N)c(C#N)c34)c(C(F)(F)F)cc12 [Compound 246] | 0.1 to 1
27 | CC(=O)N1C[C@@H](N(C)c2nc(OC[C@@]34CCCN3C[C@H](F)C4)nc3c(F)c(-c4ccc(F)c5sc(N)c(C#N)c45)c(C(F)(F)F)cc23)C[C@H]1CO [Compound 247] | 0.1 to 1
28 | N#Cc1c(N)sc2c(F)ccc(-c3c(C(F)(F)F)cc4c(N5CCCC6(C5)NC(=O)NC6=O)nc(OC[C@@]56CCCN5C[C@H](F)C6)nc4c3F)c12 (stereo partly drawn) [Compound 248] | 0.1 to 1
29 | N#Cc1c(N)sc2c(F)ccc(-c3c(C(F)(F)F)cc4c(N5CCNC(=O)CC5)nc(OC[C@@]56CCCN5C[C@H](F)C6)nc4c3F)c12 [Compound 251] | 0.1 to 1
30 | C[C@H]1[C@@H](N(C)c2nc(OC[C@@]34CCCN3C[C@H](F)C4)nc3c(F)c(-c4ccc(F)c5sc(N)c(C#N)c45)c(C(F)(F)F)cc23)CCN1C(=O)CC#N [Compound 252] | 1 to 10

test system: GP2d cells (KRAS G12D); experiment: Cell-based pERK HTRF assay in GP2d cell (Biological Example 2); settings: GP2d, GP2d (KRAS G12D) cells, pERK HTRF
Method in brief: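 GP2d (KRAS G12D) cells were plated in DMEM/10% FBS and treated the next day for 60 min with compounds. Dosing used 9-point half-log series starting at 1 μM or 100 nM in 0.25% DMSO. Lysates were read by HTRF pERK (d2/Eu cryptate antibodies) after 4–24 h at room temperature, with excitation at 320 nm and emission at 615 nm.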

Row | Compound | IC50 [µM]
31 | CC1(O)COCCN(c2nc(OC[C@@]34CCCN3C[C@H](F)C4)nc3c(F)c(-c4ccc(F)c5sc(N)c(C#N)c45)c(C(F)(F)F)cc23)C1 (stereo partly drawn) [Compound 244] | < 0.1
32 | C[C@H]1C[C@H](O)CCN1c1nc(OC[C@@]23CCCN2C[C@H](F)C3)nc2c(F)c(-c3ccc(F)c4sc(N)c(C#N)c34)c(C(F)(F)F)cc12 [Compound 246] | < 0.1
33 | CC(=O)N1C[C@@H](N(C)c2nc(OC[C@@]34CCCN3C[C@H](F)C4)nc3c(F)c(-c4ccc(F)c5sc(N)c(C#N)c45)c(C(F)(F)F)cc23)C[C@H]1CO [Compound 247] | < 0.1
34 | N#Cc1c(N)sc2c(F)ccc(-c3c(C(F)(F)F)cc4c(N5CCCC6(C5)NC(=O)NC6=O)nc(OC[C@@]56CCCN5C[C@H](F)C6)nc4c3F)c12 (stereo partly drawn) [Compound 248] | 0.1 to 1
35 | N#Cc1c(N)sc2c(F)ccc(-c3c(C(F)(F)F)cc4c(N5CCNC(=O)CC5)nc(OC[C@@]56CCCN5C[C@H](F)C6)nc4c3F)c12 [Compound 251] | < 0.1
36 | C[C@H]1[C@@H](N(C)c2nc(OC[C@@]34CCCN3C[C@H](F)C4)nc3c(F)c(-c4ccc(F)c5sc(N)c(C#N)c45)c(C(F)(F)F)cc23)CCN1C(=O)CC#N [Compound 252] | 0.1 to 1
